We go through 15 compounds from patent publication US20220409643A1, “ROR Gamma T Inhibitors and Topical Uses Thereof” (Dermira, inc., priority 2019, published 2022).

A word on the inhibition: it is the drop in the measured response relative to a control, in per cent.

The subject of data set [1] is IL17A. As to the kind of experiment: skin Resident Immune Cell Assay (sRICA), Th17 model, IL17A protein in media. The format is cell-based. The note with it: 100 uM solution in 1% DMSO/OD applied topically to human skin, media collected 24 hours after Th17 activation. The essentials:
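Human surgical skin, dermatomed to 750μm, 8 mm biopsies cultured air-liquid in transwells; RORγt inhibitors applied topically at 100 uM in 1% DMSO/OD, up to 24 h before Th17 activation by cytokine/antibody cocktail. IL17A measured in media 24 h post-activation by SiMoA, expressed as % of activated untreated skin.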

Data set [2] has as its system Th17 associated genes. The experiment in a line: expression of Th17 associated genes in skin by real-time quantitative reverse transcription PCR. It is filed as cell-based. To be noted: skin harvested 24 hours after induction of inflammation. On the procedure: Studies were carried out to determine the effect of two RORγt inhibitors of the present disclosure (i.e., Compound 1 and Compound 2, prepared in formulation as described in Example 1) on Th17 associated genes. Skin was harvested from subjects 24 hours after induction of inflammation. The RNA from the samples were isolated, and expression of the genes were quantified through real-time quantitative reverse transcription PCR. Clobetasol was used as a positive control.

In data set [3] the test system is imiquimod (IMQ)-induced psoriasis in mice. As to the kind of experiment: IMQ-induced psoriasis in mice, topical treatment. The format is in vivo. To be noted: 0.05% topical clobetasol cream, 10% body surface area. An excerpt: Topical application of imiquimod (IMQ), a TLR7/8 ligand and potent immune activator, is applied to the shaved backs and ears of mice to induce psoriasis. Information on the murine model of IMQ-induced psoriasis can be found at van der Fits L, Mourits S, Voerman JS, Kant M, Boon L, Laman JD, et al. Imiquimod-induced psoriasis-like skin inflammation in mice is mediated via the IL-23/IL-17 axis. J Immunol. 2009; 182:5836-45, which is hereby incorporated by reference in its entirety. Following administration of IMQ, mice ears and skin are observed for erythema, occurrence of scales and thickness after a period of six days. One group of mice were administered 0.05% topical clobetasol cream (10% body surface area), a potent topical steroid, as a positive control, and one group of mice received topical vehicle lacking Compoun 1 (10% body surface area), and one group was administered Compound 1 (3% formulation)(10% body surface area).
The mice were evaluated for erythema, presence of scales, thickness of ear tissue and body weight following administration of the treatments described above. Erythema and scales are determined by comparing the mice to a reference for color and severity of scaling.

In the case of `COc1ccc2c(n1)CCN(C(=O)Cc1cc(O)no1)[C@H]2C(=O)Nc1cc(F)c2c(c1)CCC2(C)C` [(5R)-N-(7-fluoro-1,1-dimethyl-2,3-dihydro-1H-inden-5-yl)-6-((3-hydroxy-1,2-oxazol-5-yl)acetyl)-2-methoxy-5,6,7,8-tetrahydro-1,6-naphthyridine-5-carboxamide], the inhibition at 100 µM in data set [1] turned out to be 19.2%. Still for that read-out and setting: for `COc1ccc2c(n1)CCN(C(=O)c1cc(O)no1)[C@H]2C(=O)Nc1cc(F)c2c(c1)CCC2(C)C` [(5R)-N-(7-fluoro-1,1-dimethyl-2,3-dihydro-1H-inden-5-yl)-6-((3-hydroxy-1,2-oxazol-5-yl)carbonyl)-2-methoxy-5,6,7,8-tetrahydro-1,6-naphthyridine-5-carboxamide] the value was 46.9%. For `C[C@H]1C[C@H]2[C@@H]3CCC4=CC(=O)C=C[C@]4(C)[C@@]3(F)[C@@H](O)C[C@]2(C)[C@@]1(O)C(=O)CCl` [Clobetasol], in data set [2], the CCL-20 gene expression was found to be 10% reduction, the FoxP3 gene expression is recorded as 6-fold increase, the IL-17A gene expression was determined as 68% reduction and the IL-19 gene expression amounted to 53% reduction. In data set [2], this compound showed an IL-36γ gene expression of 60% reduction, an S100A7 gene expression of 62% reduction, a SerapinB gene expression of 65% reduction and a TNFα gene expression of 25% reduction. Besides, in data set [3], the “Body weight change / systemic toxicity” value is recorded as “significant weight loss”.

Take `CN(C(=O)c1cc(O)no1)C(C(=O)Nc1cc(F)c([Si](C)(C)C)c(F)c1)C1CCOCC1` (centres unmarked) [N-(2-((3,5-difluoro-4-(trimethylsilyl)phenyl)amino)-2-oxo-1-(tetrahydro-2H-pyran-4-yl)ethyl)-3-hydroxy-N-methyl-1,2-oxazole-5-carboxamide]: the inhibition at 100 µM in data set [1] (Homo sapiens, 24 h) is 31.7%. With `COCc1ccc(C(NC(=O)C2CNC(=O)C2)C(=O)Nc2ccc([Si](C)(C)C)c(F)c2)cc1` (centres unmarked) [N-(2-((3-fluoro-4-(trimethylsilyl)phenyl)amino)-1-(4-(methoxymethyl)phenyl)-2-oxoethyl)-5-oxopyrrolidine-3-carboxamide], the inhibition at 100 µM in data set [1] (Homo sapiens, 24 h) was found to be 85.2%.

For `COc1ccc(C(NC(=O)C2CNC(=O)C2)C(=O)Nc2ccc([Si](C)(C)C)c(F)c2)cc1` (centres unmarked) [N-(2-((3-fluoro-4-(trimethylsilyl)phenyl)amino)-1-(4-methoxyphenyl)-2-oxoethyl)-5-oxopyrrolidine-3-carboxamide], the inhibition at 100 µM in data set [1] (Homo sapiens, 24 h) stood at 65.8%. On to `CCn1c(=O)n(CCCOC)c(=O)c2cc(NC(=O)CC(C)CC(=O)Nc3ccc(C#N)c(Cl)c3)ccc21` (centres unmarked) [N-(3-chloro-4-cyanophenyl)-N′-(1-ethyl-3-(3-methoxypropyl)-2,4-dioxo-1,2,3,4-tetrahydroquinazolin-6-yl)-3-methylpentanediamide], for which, in data set [1] (Homo sapiens, 24 h), the inhibition at 100 µM was 60.8%. For `COc1ccc([C@H](C(=O)Nc2cc(F)c([Si](C)(C)C)cc2F)N(C)C(=O)c2cc(O)no2)cc1` [N-((1R)-2-((2,5-difluoro-4-(trimethylsilyl)phenyl)amino)-1-(4-methoxyphenyl)-2-oxoethyl)-3-hydroxy-N-methyl-1,2-oxazole-5-carboxamide], in data set [1] (Homo sapiens, 24 h), the inhibition at 100 µM is 18.2%. With `COCc1ccc([C@@H](NC(=O)CCS(C)(=O)=O)C(=O)Nc2ccc([Si](C)(C)C)c(F)c2)cc1` [N-((1R)-2-((3-fluoro-4-(trimethylsilyl)phenyl)amino)-1-(4-(methoxymethyl)phenyl)-2-oxoethyl)-3-(methylsulfonyl)propanamide], the inhibition at 100 µM in data set [1] (Homo sapiens, 24 h) is 67.4%.

With `COCc1ccc([C@@H](NC(=O)N2CC(O)C2)C(=O)Nc2ccc([Si](C)(C)C)c(F)c2)cc1` [N-((1R)-2-((3-fluoro-4-(trimethylsilyl)phenyl)amino)-1-(4-(methoxymethyl)phenyl)-2-oxoethyl)-3-hydroxyazetidine-1-carboxamide], the inhibition at 100 µM in data set [1] (Homo sapiens, 24 h) stood at 54.6%. The same measure, in the same setting: under `COCc1ccc([C@@H](NC(=O)C2CCOCC2)C(=O)Nc2ccc([Si](C)(C)C)c(F)c2)cc1` [N-((1R)-2-((3-fluoro-4-(trimethylsilyl)phenyl)amino)-1-(4-(methoxymethyl)phenyl)-2-oxoethyl)tetrahydro-2H-pyran-4-carboxamide] stands -20.1%. Regarding `CC(C)(C)c1ccc(NC(=O)[C@H](NC(=O)C(O)C(F)(F)F)C2CCOCC2)cc1Cl` (stereo partly drawn) [N-((1R)-2-((4-tert-butyl-3-chlorophenyl)amino)-2-oxo-1-(tetrahydro-2H-pyran-4-yl)ethyl)-3,3,3-trifluoro-2-hydroxypropanamide], in data set [1], the inhibition at 100 µM was found to be 71.3%. With `CCn1c2ccccc2c2cc(C(=O)NCC(C)CC(=O)Nc3ccc(C#N)c(Cl)c3)ccc21` (centres unmarked) [N-{4-[(3-chloro-4-cyanophenyl)amino]-2-methyl-4-oxobutyl}-9-ethyl-9H-carbazole-3-carboxamide], the inhibition at 100 µM in data set [1] (Homo sapiens, 24 h) came out at 24.5%. On the same count and under the same terms, for `Cn1ncc2cc([C@@H](NC(=O)[C@@H]3CNC(=O)C3)C(=O)Nc3ccc([Si](C)(C)C)c(F)c3)ccc21` [drawing 79, (3S)-N-((1R)-2-((3-fluoro-4-(trimethylsilyl)phenyl)amino)-1-(1-methyl-1H-indazol-5-yl)-2-oxoethyl)-5-oxopyrrolidine-3-carboxamide] the value was 45.7%. With `Cn1ncc2cc([C@@H](NC(=O)[C@@H]3CNC(=O)C3)C(=O)Nc3ccc([Si](C)(C)C)c(F)c3)ccc21` [drawing 89, (3S)-N-(2-((3-fluoro-4-(trimethylsilyl)phenyl)amino)-1-(1-methyl-1H-indazol-5-yl)-2-oxoethyl)-5-oxopyrrolidine-3-carboxamide], the “Activity in sRICA (% inhibition of IL17A)” value in data set [1] is recorded as 36.72%.
